Experimental findings from US9708337B2, “Aryl amide-based kinase inhibitors” (Bristol-Myers Squibb Company, priority 2013, dated 2017) are described below.

In general, IC50 refers to the concentration that gives 50% inhibition.

Structures are written as SMILES.

Sequence of AAK1 (GST-Xa-hAAK1) (Q2M2I8 whole entry): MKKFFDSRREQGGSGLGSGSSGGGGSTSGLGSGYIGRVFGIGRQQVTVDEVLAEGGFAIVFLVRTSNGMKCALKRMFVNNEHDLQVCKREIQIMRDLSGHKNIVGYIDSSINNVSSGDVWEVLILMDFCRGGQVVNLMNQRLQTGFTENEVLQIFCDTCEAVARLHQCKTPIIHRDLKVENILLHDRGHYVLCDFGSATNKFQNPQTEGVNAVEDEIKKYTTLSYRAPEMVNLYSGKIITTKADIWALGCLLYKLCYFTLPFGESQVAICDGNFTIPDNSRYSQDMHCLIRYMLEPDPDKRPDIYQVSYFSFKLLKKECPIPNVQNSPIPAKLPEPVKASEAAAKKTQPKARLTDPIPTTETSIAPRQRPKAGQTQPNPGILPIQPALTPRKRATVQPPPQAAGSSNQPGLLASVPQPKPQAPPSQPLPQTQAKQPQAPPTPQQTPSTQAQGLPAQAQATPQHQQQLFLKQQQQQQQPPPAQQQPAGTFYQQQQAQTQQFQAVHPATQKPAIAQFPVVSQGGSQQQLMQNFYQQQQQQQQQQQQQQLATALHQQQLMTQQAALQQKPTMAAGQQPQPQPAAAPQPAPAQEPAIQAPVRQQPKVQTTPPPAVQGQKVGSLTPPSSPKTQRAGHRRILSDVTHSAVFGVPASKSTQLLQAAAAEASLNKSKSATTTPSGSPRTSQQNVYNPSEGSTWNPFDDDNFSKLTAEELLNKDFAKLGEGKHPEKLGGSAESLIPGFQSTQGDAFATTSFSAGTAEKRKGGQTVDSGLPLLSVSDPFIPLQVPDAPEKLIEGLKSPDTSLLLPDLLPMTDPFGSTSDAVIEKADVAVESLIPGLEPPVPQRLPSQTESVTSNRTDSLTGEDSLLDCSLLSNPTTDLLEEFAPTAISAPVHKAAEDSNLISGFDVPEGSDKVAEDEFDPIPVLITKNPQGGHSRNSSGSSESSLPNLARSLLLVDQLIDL

One test addresses AAK1 (GST-Xa-hAAK1) (Homo sapiens (Human), UniProt Q2M2I8). The experiment in a line: AAK1 Kinase Assay. In kind it is biochemical.
Conditions: not given
As to the method:
The assays were performed in U-bottom 384-well plates. […] The reactions were initiated by the combination of bacterially expressed, GST-Xa-hAAK1 with substrates and test compounds. The reactions were incubated at room temperature for 3 hours and terminated by adding 60 μl of 35 mM EDTA buffer to each sample. […] Compounds were dissolved at 10 mM in dimethylsulfoxide (DMSO) and evaluated at eleven concentrations. IC50 values were derived by non-linear regression analysis.
As for `O=C(Nc1ccc2c(c1)OCc1cnccc1-2)C1CCCCC1` [Example 23, N-(5H-chromeno[3,4-c]pyridin-8-yl)cyclohexanecarboxamide], the IC50 fell in the range of 100 to 1200 nM. With `CC(C)(C)COC(=O)Nc1ccc2c(c1)OCc1cnccc1-2` [Example 12, neopentyl 5H-chromeno[3,4-c]pyridin-8-ylcarbamate], the IC50 was 100 to 1200 nM. Same read-out and setting: the value for `N#CC1(C(=O)Nc2ccc3c(c2)OCc2cnccc2-3)CC1` [Example 20, N-(5H-chromeno[3,4-c]pyridin-8-yl)-1-cyanocyclopropanecarboxamide] was 100 to 1200 nM. The same measure, in the same setting: to `CC(C)C[C@H](N)C(=O)Nc1ccc2c(c1)OCc1cnccc1-2` [Example 2, (S)-2-amino-N-(5H-chromeno[3,4-c]pyridin-8-yl)-4-methylpentanamide] belongs 1 to 10 nM; to `CC(=O)Nc1ccc2c(c1)OCc1cnccc1-2` [Example 17, N-(5H-chromeno[3,4-c]pyridin-8-yl)acetamide], 100 to 1200 nM. On the same count and under the same terms, to `N[C@H](CNc1ccc2c(c1)OCc1cnccc1-2)c1ccccc1` [Example 37, (S)—N^1-(5H-chromeno[3,4-c]pyridin-8-yl)-2-phenylethane-1,2-diamine] belongs 10 to 100 nM. As to `CCCCC(=O)Nc1cc2c(cc1Br)-c1ccncc1CO2` [Example 34, N-(9-bromo-5H-chromeno[3,4-c]pyridin-8-yl)pentanamide], the IC50 fell in the range of 10 to 100 nM. On the same count and under the same terms, the value for `CC(C)(C)CC(=O)Nc1ccc2c(c1)OCc1cnccc1-2` [Example 26, N-(5H-chromeno[3,4-c]pyridin-8-yl)-3,3-dimethylbutanamide] was 10 to 100 nM; that for `CCCC(=O)Nc1ccc2c(c1)OCc1cnccc1-2` [Example 31, N-(5H-chromeno[3,4-c]pyridin-8-yl)butyramide] was 10 to 100 nM. Still for that read-out and setting: the value for `COC(=O)CCC(=O)Nc1ccc2c(c1)OCc1cnccc1-2` [Example 29, methyl 4-((5H-chromeno[3,4-c]pyridin-8-yl)amino)-4-oxobutanoate] was 100 to 1200 nM; that for `NS(=O)(=O)CCCC(=O)Nc1ccc2c(c1)OCc1cnccc1-2` [Example 21, N-(5H-chromeno[3,4-c]pyridin-8-yl)-4-sulfamoylbutanamide] was 100 to 1200 nM; that for `C#CCCC(=O)Nc1ccc2c(c1)OCc1cnccc1-2` [Example 14, N-(5H-chromeno[3,4-c]pyridin-8-yl)pent-4-ynamide] was 10 to 100 nM. The same measure, in the same setting: to `CC(C)CC(=O)Nc1ccc2c(c1)OCc1cnccc1-2` [Example 27, N-(5H-chromeno[3,4-c]pyridin-8-yl)-3-methylbutanamide] belongs 10 to 100 nM.

Turning to `CC(C)C(=O)Nc1ccc2c(c1)OCc1cnccc1-2` [Example 24, N-(5H-chromeno[3,4-c]pyridin-8-yl)isobutyramide], the IC50 fell in the range of 100 to 1200 nM. Same read-out and setting: to `CC(C)C[C@@H](N)C(=O)Nc1ccc2c(c1)OC(C)(C)c1cnccc1-2` [Example 8, (R)-2-amino-N-(5,5-dimethyl-5H-chromeno[3,4-c]pyridin-8-yl)-4-methylpentanamide] belongs 10 to 100 nM; to `N#CCC(=O)Nc1ccc2c(c1)OCc1cnccc1-2` [Example 25, N-(5H-chromeno[3,4-c]pyridin-8-yl)-2-cyanoacetamide], 100 to 1200 nM; to `COCCC(=O)Nc1ccc2c(c1)OCc1cnccc1-2` [Example 18, N-(5H-chromeno[3,4-c]pyridin-8-yl)-3-methoxypropanamide], 100 to 1200 nM. Still for that read-out and setting: to `CC(C)C[C@@H](N)C(=O)Nc1ccc2c(c1)OCc1cnccc1-2` [Example 1, (R)-2-amino-N-(5H-chromeno[3,4-c]pyridin-8-yl)-4-methylpentanamide] belongs 1 to 10 nM. The same measure, in the same setting: to `O=C(Nc1ccc2c(c1)OCc1cnccc1-2)NC1CCCCC1` [Example 13, 1-(5H-chromeno[3,4-c]pyridin-8-yl)-3-cyclohexylurea] belongs 100 to 1200 nM; to `CC(C)(C)C(=O)Nc1ccc2c(c1)OCc1cnccc1-2` [Example 32, N-(5H-chromeno[3,4-c]pyridin-8-yl)pivalamide], 100 to 1200 nM; to `O=C(CCO)Nc1ccc2c(c1)OCc1cnccc1-2` [Example 19, N-(5H-chromeno[3,4-c]pyridin-8-yl)-3-hydroxypropanamide], 100 to 1200 nM. On to `CCC(=O)Nc1ccc2c(c1)OCc1cnccc1-2` [Example 28, N-(5H-chromeno[3,4-c]pyridin-8-yl)propionamide], for which the IC50 lay in the range of 100 to 1200 nM.

The test is the same for the next values; noted with them: Table 1a, listed as IC50 ranges; ATP 22 μM; read-out: AAK1 IC50.
With `N#CCCC(=O)Nc1ccc2c(c1)OCc1cnccc1-2` [Example 16, N-(5H-chromeno[3,4-c]pyridin-8-yl)-3-cyanopropanamide], the IC50 is 100 to 1200 nM.

As to `CC(C)CCC(=O)Nc1ccc2c(c1)OCc1cnccc1-2` [Example 30, N-(5H-chromeno[3,4-c]pyridin-8-yl)-4-methylpentanamide], the IC50 lay in the range of 10 to 100 nM. Take `CC(=O)Nc1cc2c(cn1)COc1cc(NC(=O)[C@@H](N)CC(C)C)ccc1-2` [Example 35, (S)—N-(2-acetamido-5H-chromeno[3,4-c]pyridin-8-yl)-2-amino-4-methylpentanamide]: the IC50 was in the range of 10 to 100 nM.

With `CN(C)CC(=O)Nc1ccc2c(c1)OCc1cnccc1-2` [Example 33, N-(5H-chromeno[3,4-c]pyridin-8-yl)-2-(dimethylamino)acetamide], the IC50 lay within 100 to 1200 nM.

Consider `CC(C)C[C@H](N)C(=O)Nc1ccc2c(c1)oc(=O)c1cnccc12` [Example 11, (S)-2-amino-4-methyl-N-(5-oxo-5H-chromeno[3,4-c]pyridin-8-yl)pentanamide], for which the IC50 was 100 to 1200 nM.

Still in this test, the particulars now being: Table 1a, numeric values; ATP 22 μM; read-out: AAK1 IC50.
As to `CC(C)C1CCCNC1C(=O)Nc1ccc2c(c1)OCc1cnccc1-2` (centres unmarked) [Example 10, N-(5H-chromeno[3,4-c]pyridin-8-yl)-3-isopropylpiperidine-2-carboxamide], the IC50 amounted to 1.3 nM. The same measure, in the same setting: to `N[C@H](C(=O)Nc1ccc2c(c1)OCc1cnccc1-2)c1ccccc1` [Example 36, (S)-2-amino-N-(5H-chromeno[3,4-c]pyridin-8-yl)-2-phenylacetamide] belongs 8.9 nM; to `CCCCC(=O)Nc1ccc2c(c1)OCc1cnccc1-2` [Example 15, N-(5H-chromeno[3,4-c]pyridin-8-yl)pentanamide], 26 nM; to `O=C(CCN1CCCC1=O)Nc1ccc2c(c1)OCc1cnccc1-2` [Example 22, N-(5H-chromeno[3,4-c]pyridin-8-yl)-3-(2-oxopyrrolidin-1-yl)propanamide], 1200 nM. Still for that read-out and setting: the value for `CC(C)C[C@H](N)C(=O)Nc1ccc2c(c1)OC(C)(C)c1cnccc1-2` [Example 9, (S)-2-amino-N-(5,5-dimethyl-5H-chromeno[3,4-c]pyridin-8-yl)-4-methylpentanamide] was 129 nM.
